From patent publication US7695736B2, “Reconstitutable parenteral composition” (Pfizer Inc., priority 2001, dated 2010)

How the values were obtained:
COX-1 = COX-1 (Homo sapiens, UniProt P23219); conditions: in vitro; cited from earlier work
[1] = human pharmacokinetic study: blood plasma concentration of valdecoxib; assay type: in vivo
Description: Subjects drank 180 ml water one, two and three hours postdose.

[2] = system: patients requiring extraction of two ipsilateral impacted third molars; assay: placebo-controlled single-dose preemptive analgesia study, third molar extraction; assay type: in vivo, human
Description: Beginning at 30 minutes after closure of surgery, level of pain was assessed every two hours up to 24 hours, except that patients were not awakened for pain assessments. Pain was assessed by the patient on a 0-3 scale and on a chart representing a continuum from “no pain” to “worst pain”. Rescue medication was administered on demand by the patient. At the last scheduled assessment, or immediately prior to administration of rescue medication, the patient was asked to evaluate the effectiveness of the study medication to delay pain. Time to rescue medication (TRM) was analyzed using survival analysis techniques. The median time to event for each treatment group was calculated using the Kaplan-Meier product limit estimator, including the adjustment described by Miller (1981) in Survival Analysis, pp. 74-75. New York: John Wiley & Sons. Ninety five percent (95%) confidence intervals for the median time to event were calculated using the method of Simon & Lee (1982), Cancer Treat. Rep. 66, 37-42. […] Patients who dropped out for reasons other than administration of rescue medication were censored at the time they dropped out of the study.

physchem = conditions: 20 °C, thermodynamic from solid
[3] = single preemptive intravenous dose 40 mg

Sequence of COX-1 (P23219 24-599): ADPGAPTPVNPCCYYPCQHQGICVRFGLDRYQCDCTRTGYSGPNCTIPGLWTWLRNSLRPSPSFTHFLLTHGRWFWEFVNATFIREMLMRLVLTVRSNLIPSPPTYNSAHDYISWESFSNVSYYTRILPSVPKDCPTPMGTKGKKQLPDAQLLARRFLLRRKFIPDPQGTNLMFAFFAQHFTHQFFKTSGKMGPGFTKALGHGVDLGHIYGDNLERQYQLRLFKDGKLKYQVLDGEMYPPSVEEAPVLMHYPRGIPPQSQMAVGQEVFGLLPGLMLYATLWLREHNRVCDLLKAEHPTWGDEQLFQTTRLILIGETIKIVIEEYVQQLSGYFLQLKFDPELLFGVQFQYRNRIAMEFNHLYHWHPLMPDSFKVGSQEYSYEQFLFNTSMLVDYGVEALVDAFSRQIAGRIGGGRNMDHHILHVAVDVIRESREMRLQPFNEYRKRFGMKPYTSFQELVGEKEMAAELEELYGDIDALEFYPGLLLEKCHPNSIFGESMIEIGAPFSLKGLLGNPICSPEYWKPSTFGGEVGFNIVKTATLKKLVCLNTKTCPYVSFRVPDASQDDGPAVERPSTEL

| Structure (SMILES) | inhibitory activity against COX-1 (COX-1) | conversion to valdecoxib after parenteral administration ([1]; human subject, parenteral) | patients rating the study medication as good or excellent ([2]; 40 mg treatment group) | patient's evaluation of effectiveness scores compared with placebo ([2]; each parecoxib treatment group) | proportion of patients taking rescue medication compared with placebo ([2]; parecoxib treatment groups 20, 40, 80 mg) | TRM compared with placebo ([2]; single doses 20 mg, 40 mg and 80 mg) | Patients taking rescue medication ([2]; single preemptive intravenous dose 20 mg) | Median TRM (time to rescue medication) [2, 3] | Patients taking rescue medication [2, 3] | Patients taking rescue medication ([2]; single preemptive intravenous dose 80 mg) | time at which maximum blood plasma concentration of valdecoxib was reached ([1]; human, 20 mg IV bolus vs 20 mg valdecoxib oral immediate-release tablet) | solubility thermodynamic (physchem; pH 7.3, aqueous buffer) | solubility thermodynamic (physchem; pH 7.8, aqueous buffer) | solubility thermodynamic (physchem; pH 8.2, aqueous buffer) |
| --- | --- | --- | --- | --- | --- | --- | --- | --- | --- | --- | --- | --- | --- | --- |
| Cc1onc(-c2ccccc2)c1-c1ccc(S(N)(=O)=O)cc1 [valdecoxib] | weak inhibitor |  |  |  |  |  |  |  |  |  |  |  |  |  |
| CCC(=O)NS(=O)(=O)c1ccc(-c2c(-c3ccccc3)noc2C)cc1 [Parecoxib, parecoxib] | weak in vitro inhibitory activity | rapidly and completely converted to valdecoxib | 92% | significantly higher | significantly lower | significantly longer TRM than placebo | 78% | >24 h | 48% | 59% |  |  |  |  |
| CCC(=O)NS(=O)(=O)c1ccc(-c2c(-c3ccccc3)noc2C)cc1 [parecoxib sodium] |  |  |  |  |  |  |  |  |  |  | earlier | 1 mg/mL | 18 mg/mL | 220 mg/mL |
